The source of these data is article PMC7759271 (Cannabis and Cannabinoid Research, 2020).

The target in test [1] is T1, hTRPA1 (Homo sapiens, UniProt O75762).
T1 construct: gene TRPA1
The test is described as follows: intracellular calcium fluorescence assay (Calcium […] dye, FlexStation […]). Format: cell-based. A general note: Calcium assays in cells follow changes in intracellular calcium, usually with a dye or a luminescent sensor.

Test [2] has as its target T2, hTRPV1 (Homo sapiens, UniProt Q8NER1).
T2 construct: gene TRPV1
Described as above. The format is cell-based.

T1 sequence (O75762 whole entry): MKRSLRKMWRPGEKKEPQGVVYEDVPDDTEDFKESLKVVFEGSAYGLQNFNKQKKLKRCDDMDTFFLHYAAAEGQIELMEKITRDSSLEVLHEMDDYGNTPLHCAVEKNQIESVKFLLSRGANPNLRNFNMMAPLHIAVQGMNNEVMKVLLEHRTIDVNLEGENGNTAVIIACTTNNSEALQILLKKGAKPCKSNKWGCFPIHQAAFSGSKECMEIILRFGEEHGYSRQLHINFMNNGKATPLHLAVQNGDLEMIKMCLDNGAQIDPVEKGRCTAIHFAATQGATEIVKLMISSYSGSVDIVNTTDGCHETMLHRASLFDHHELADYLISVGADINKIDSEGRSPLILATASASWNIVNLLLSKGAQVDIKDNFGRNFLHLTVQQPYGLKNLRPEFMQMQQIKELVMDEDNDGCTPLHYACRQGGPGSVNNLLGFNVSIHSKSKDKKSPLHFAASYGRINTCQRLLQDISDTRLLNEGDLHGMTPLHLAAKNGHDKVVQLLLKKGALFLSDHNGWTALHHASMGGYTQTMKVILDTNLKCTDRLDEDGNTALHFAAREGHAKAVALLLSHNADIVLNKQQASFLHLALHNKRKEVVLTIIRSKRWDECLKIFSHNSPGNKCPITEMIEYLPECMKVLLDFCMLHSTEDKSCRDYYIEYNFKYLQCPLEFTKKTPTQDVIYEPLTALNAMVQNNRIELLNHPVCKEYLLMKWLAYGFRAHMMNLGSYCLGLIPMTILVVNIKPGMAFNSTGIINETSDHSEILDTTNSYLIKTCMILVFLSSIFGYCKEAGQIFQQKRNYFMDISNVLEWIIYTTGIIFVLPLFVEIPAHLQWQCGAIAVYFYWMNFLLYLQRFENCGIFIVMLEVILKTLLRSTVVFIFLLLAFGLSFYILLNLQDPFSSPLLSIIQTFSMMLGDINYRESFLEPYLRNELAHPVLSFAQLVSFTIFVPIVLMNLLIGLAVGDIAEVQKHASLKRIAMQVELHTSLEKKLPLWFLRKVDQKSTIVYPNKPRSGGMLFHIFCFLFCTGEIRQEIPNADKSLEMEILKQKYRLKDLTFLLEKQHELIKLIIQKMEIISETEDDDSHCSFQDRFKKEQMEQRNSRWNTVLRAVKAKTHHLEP
T2 sequence (Q8NER1 whole entry): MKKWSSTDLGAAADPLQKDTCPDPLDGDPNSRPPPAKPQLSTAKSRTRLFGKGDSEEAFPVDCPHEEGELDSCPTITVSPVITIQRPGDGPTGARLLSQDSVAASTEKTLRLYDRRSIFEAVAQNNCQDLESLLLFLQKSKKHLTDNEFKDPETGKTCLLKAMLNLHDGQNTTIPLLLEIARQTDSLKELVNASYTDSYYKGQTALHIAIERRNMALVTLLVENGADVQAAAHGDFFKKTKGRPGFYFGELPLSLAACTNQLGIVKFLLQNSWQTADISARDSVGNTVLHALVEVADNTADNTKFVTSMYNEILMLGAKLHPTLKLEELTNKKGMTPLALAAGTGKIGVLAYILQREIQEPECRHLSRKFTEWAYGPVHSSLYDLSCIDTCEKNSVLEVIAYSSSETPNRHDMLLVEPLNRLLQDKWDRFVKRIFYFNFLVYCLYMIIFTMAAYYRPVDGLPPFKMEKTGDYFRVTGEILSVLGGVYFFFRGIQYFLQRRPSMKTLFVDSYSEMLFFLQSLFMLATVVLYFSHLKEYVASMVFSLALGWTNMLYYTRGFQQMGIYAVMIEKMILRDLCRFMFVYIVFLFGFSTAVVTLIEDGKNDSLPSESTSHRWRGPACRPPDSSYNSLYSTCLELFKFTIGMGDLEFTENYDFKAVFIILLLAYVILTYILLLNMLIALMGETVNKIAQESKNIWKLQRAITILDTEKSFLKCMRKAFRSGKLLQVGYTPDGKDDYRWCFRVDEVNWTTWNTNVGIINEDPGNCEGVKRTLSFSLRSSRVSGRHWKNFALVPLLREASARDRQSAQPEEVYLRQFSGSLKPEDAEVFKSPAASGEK

A word on the EC50: it is the midpoint of the concentration-response curve. For `CCCCC/C=C\C/C=C\C/C=C\C/C=C\CCCC(=O)OC(CO)CO` [2-arachidonoylglycerol], the EC50 in test [1] is 10 µM.
Take `CCCCC/C=C\C/C=C\C/C=C\C/C=C\CCCC(=O)NCCO` [anandamide]: the EC50 in test [2] turned out to be 4.3 µM.
For `O=CC=Cc1ccccc1` [cinnamaldehyde], in test [1], the EC50 was 12 µM.
For `CCCCCc1cc(O)c2c(c1)OC(C)(C)[C@@H]1CCC(C)=C[C@@H]21` [Δ9-tetrahydrocannabinol], in test [1], the EC50 was determined as 9 µM.
